{"source": "patent US11793222B2", "about": "“Solutions and dispersions of amide compounds” (Firmenich SA, priority 2016, dated 2023)", "key": {"trained panelists [1]": {"test_system": "trained panelists", "experiment": "Evaluation of the umami effect in hot chicken bouillon by trained panelists", "type": "in vivo", "settings": "20 ppm compound or 40 ppm solid dispersion (50:50 w/w), 4 trained panelists, blind, after 5 minutes", "protocol": "(§1) The solutions were presented to 4 trained panelists on a blind test basis after 5 minutes. They were asked to rate the samples for the umami taste intensity from 0 to 10 (0 denoted no umami effect, and 10 denoted very strong umami taste). The sample according to the invention was rated higher in umami intensity (5.0) than the comparative sample (3.8).\nThe bouillons were presented to 4 trained panelists on a blind test basis after 5 minutes. The sample according to the invention was rated higher in umami intensity (6.5) than the comparative sample (5.5)."}, "[2]": {"experiment": "Dissolution kinetics in water at 60° C., followed by UV/Vis spectroscopy (absorbance at 310 nm)", "type": "physicochemical", "protocol": "The dissolution process was followed on-line by monitoring the UV signal of dissolved (E)-3-(3,4-dimethoxyphenyl)-N-(4-methoxyphenethyl)acrylamide with UV/Vis spectroscopy (measuring absorbance at 310 nm). The dissolution process yielded 50% of the target concentration of 20 ppm of (E)-3-(3,4-dimethoxyphenyl)-N-(4-methoxyphenethyl)acrylamide (10 ppm) after 1.5 minutes, and 95% (19 ppm) after 17 minutes.\n20 mg of (E)-3-(3,4-dimethoxyphenyl)-N-(4-methoxyphenethyl)acrylamide were dispersed in 1 L of water at 60° C. The dissolution process yielded 50% of the target concentration of 20 ppm (10 ppm) after 78 minutes (factor 50 slower compared to example 1). 95% (19 ppm) of the target concentration could not be achieved after 6 hours. The concentration of dissolved (E)-3-(3,4-dimethoxyphenyl)-N-(4-methoxyphenethyl)acrylamide after 6 hours was 15 ppm (75% of target).\n1.8 g of (E)-3-(3,4-dimethoxyphenyl)-N-(4-methoxyphenethyl)acrylamide and 1.8 g betaine were mixed with 116 g of a mixture of ethanol and water (50:50 w/w). The dispersion was heated to 60° C. until complete dissolution of the solid material. The solution was kept at 60° C., spray dried, and a fine, white powder was obtained. […] The dissolution process yielded 50% of the target concentration of 20 ppm of (E)-3-(3,4-dimethoxyphenyl)-N-(4-methoxyphenethyl)acrylamide (10 ppm) after 2.5 minutes, and 95% (19 ppm) after 29 minutes."}, "trained panelists [3]": {"test_system": "trained panelists", "experiment": "Evaluation of the umami effect in hot water by trained panelists", "type": "in vivo", "settings": "20 ppm compound or 40 ppm solid dispersion (50:50 w/w), 4 trained panelists, blind, after 5 minutes", "protocol": "as §1"}, "trained panelists [4]": {"test_system": "trained panelists", "experiment": "Evaluation of the umami effect in cold water by trained panelists", "type": "in vivo", "settings": "cold water (room temperature); 20 ppm compound or 40 ppm solid dispersion (50:50 w/w); 4 trained panelists, blind, after 5 minutes", "protocol": "as §1\nThe solutions were presented to 4 trained panelists on a blind test basis after 5 minutes. The sample according to the invention was rated higher in umami intensity (3.4) than the comparative sample (2.5)."}}, "data": [{"molecule": "COc1ccc(CCNC(=O)/C=C/c2ccc(OC)c(OC)c2)cc1", "note": "[(E)-3-(3,4-dimethoxyphenyl)-N-(4-methoxyphenethyl)acrylamide]", "values": [{"measurement": "umami intensity rating", "setting": "trained panelists [1]", "value": 5.5}, {"measurement": "time until 95% (19 ppm) of the target concentration (could not be achieved)", "setting": "[2]; 20 mg in 1 L of water at 60° C.", "value": "> 6", "unit": "h"}, {"measurement": "concentration of dissolved compound after 6 hours", "setting": "[2]; 20 mg in 1 L of water at 60° C., after 6 hours", "value": 15, "unit": "ppm"}, {"measurement": "dissolved compound after 6 hours as % of target", "setting": "[2]; 20 mg in 1 L of water at 60° C., after 6 hours, target 20 ppm", "value": 75, "unit": "%"}, {"measurement": "time until dissolution yielded 50% of the target concentration of 20 ppm (10 ppm)", "setting": "[2]; 1 L of water at 60° C., target 20 ppm of the amide", "value": 78, "unit": "min"}, {"measurement": "factor slower compared to example 1 (time to 50% of target concentration)", "setting": "[2]; water at 60° C.", "value": 50}, {"measurement": "umami taste intensity rating from 0 to 10", "setting": "trained panelists [3]", "value": 3.8}, {"measurement": "umami intensity rating", "setting": "trained panelists [4]", "value": 2.5}]}]}
